Measurements reported in US6369246B2, “Synthesis and pharmaceuticals of novel 9-substituted-1, 5-dichloroanthracene analogs” (Dr. Keith Chan, GloboAsia, LLC, priority 1999, dated 2002).
Like-named read-outs stand apart in the source and are kept apart here.

Columns and labels:
[1] = system: GBM cell line (human cervical carcinoma cells of ME 180 (GBM8401)); experiment: Growth inhibition assay, GBM cell line; type: cell-based; conditions: cell counting, read-out: IC50 GBM (concentration required to inhibit cell growth by 50% relative to controls)
Description: (§1) Growth inhibition was measured in three human carcinoma cell lines (GBK KB and CHO) using a previously described […] assay. Hwang, J.-M. et al., Chin. Med. J (Taipei), 51, 166-175 (1993). Human oral epidermoid carcinoma cells (KB cell line), human cervical carcinoma cells of ME 180 (GBM8401) and Chinese hamster ovary (CHO) cells grown in plateau phase were used in all experiments. Each cell line was further divided into control and experimental groups, respectively.
(§2) Stock solutions of the test compounds were prepared in DMSO and diluted with DMEM to give a final concentration of DMSO of 0.2%. Controls were performed with DMSO or with medium alone. The medium was removed and each well was rinsed with 100 μL PBS 48 hours after addition of the test compound to the culture. The cells were then incubated with sterile 0.5% trypsin, 0.2% EDTA in PBS for 20 minutes at 37° C. The detached cells from each well were suspended in DMEM and dispersed into single cells by gentle pipeting through an Eppendorf pipette and cell growth was determined directly by counting the cells in a Neubauer counting chamber using phase contrast microscopy. Inhibition was calculated by comparison of the mean values of the test compound (N=3) with the control (N=6−8) activity: (1-test compound/control) ×100. Inhibition was statistically significant compared to that of control (Student's t Test; P=0.05). IC50 values (concentration required to inhibit cell growth by 50%) were determined for each agent which was derived by interpolation of a log inhibitor concentration versus response plot using four or more different concentrations of the compound spanning the 50% inhibition point.

[2] = system: Human oral epidermoid carcinoma cells (KB cell line); experiment: Growth inhibition assay, KB cell line; type: cell-based; conditions: 48 hours, cell counting, read-out: IC50 KB (concentration required to inhibit cell growth by 50% relative to controls)
Description: as §1, §2

[3] = system: iron-induced lipid peroxidation in rat brain homogenates; experiment: Lipid peroxidation assay (TBA); type: biochemical, Wistar rats; conditions: ferrous ion 200 μM, 37° C. 30 min; for % Inhibition (1 μM), relative percentage of inhibition: 1 μM compound; for % Inhibition (10 μM), relative percentage of inhibition: 10 μM compound
Description: Rat brain homogenate was prepared from the brains of freshly killed Wistar rats and its peroxidation. In the presence of iron ions was measured by the thiobarbituric acid (TBA). Teng, C. M. et al., Eur. J. Pharmacol., 303, 129-139 (1996). Tetramethoxypropane was used as a standard, and the results were expressed as nanomoles of malondialdehyde equivalents per milligram of protein of rat brain homogenates. In brief, whole brain tissue, excluding the cerebellum, was washed and homogenized in 10 volumes of ice-cold Krebs buffer (10 mM N-2 hydroxyethyl-piperazine-N′-2-ethanesulfonic acid (Hepes), 10 mM glucose, 140 mM NaCl, 3.6 mM KCl, 1.5 mM CaCl2, 1.4 mM KH2PO4, 0.7 mM MgSO4, pH 7.4) using a glass Dounce homogenizer. […] The reaction mixture with test compounds or vehicle was incubated for 10 min, then stimulated by addition of ferrous ion (200 μM freshly prepared), and maintained at 37° C. for 30 min. The reactions were terminated by adding […] of ice-cold trichloroacetic acid solution (4% (w/v) in 0.3 N HCl) and […], of thiobarbituric acid-reactive substance reagent (0.5% (w/v) thiobarbituric acid in 50% (v/v) acetic acid). After boiling for 15 min, the samples were cooled and extracted with n-butanol. The extent of lipid peroxidation was estimated as thiobarbituric acid-reactive substances and was read at 532 nm in a spectrophotometer (Shimadzu UV-160).

[4] = system: Chinese hamster ovary (CHO) cells; experiment: Growth inhibition assay, CHO cells; type: cell-based; conditions: 48 hours, cell counting, read-out: IC50 CHO (concentration required to inhibit cell growth by 50% relative to controls)
Description: as §1, §2

Compound	IC50 ([1]; 48 hours) [µM]	IC50 [2] [µM]	IC50 ([1]; Homo sapiens, ME-180, 48 hours) [µM]	IC50 ([2]; Homo sapiens) [µM]	% Inhibition (1 μM), relative percentage of inhibition [3] [%]	% Inhibition (10 μM), relative percentage of inhibition [3] [%]	IC50 ([4]; Cricetulus griseus) [µM]	IC50 [4] [µM]
Cc1c(C)c2c(c(C)c1O)CC[C@@](C)(CCC[C@H](C)CCC[C@H](C)CCCC(C)C)O2 [(+)-a-Tocopherol, reference compound]					61.6	100		
O=C(CBr)Oc1c2cccc(Cl)c2cc2cccc(Cl)c12 [Compound 3b]	19.2	136			100	100		1010
CC(C)C(=O)Oc1c2cccc(Cl)c2cc2cccc(Cl)c12 [Compound 3e]	196	431			1.5	28.6		1310
CCCC(=O)Oc1c2cccc(Cl)c2cc2cccc(Cl)c12 [Compound 3h]	572	544			11.8	17.7		0.1
O=C(CCCBr)Oc1c2cccc(Cl)c2cc2cccc(Cl)c12 [Compound 3i]	205	457			38.1	100		110
CCCCCC(=O)Oc1c2cccc(Cl)c2cc2cccc(Cl)c12 [Compound 3k]	1.2	317			12.2	17.2		55.1
O=C(Cc1ccccc1)Oc1c2cccc(Cl)c2cc2cccc(Cl)c12 [Compound 3v]	110	12.6			13.7	32.8		1190
COc1cccc2c1C(=O)c1c(O)c3c(c(O)c1C2=O)C[C@@](O)(C(=O)CO)C[C@@H]3O[C@H]1C[C@H](N)[C@H](O)[C@H](C)O1 [Doxorubicin, reference compound]			599	420			499	
CN(Cc1cnc2nc(N)nc(N)c2n1)c1ccc(C(=O)N[C@@H](CCC(=O)O)C(=O)O)cc1 [Methotrexate, reference compound]			9290	47200			9140	
CO[C@@]12[C@H](COC(N)=O)C3=C(C(=O)C(C)=C(N)C3=O)N1C[C@@H]1N[C@@H]12 [Mitomycin-C, reference compound]	1900							2120

Second part, led by results:

IC50 ([1]; 48 hours) [µM]	IC50 [2] [µM]	IC50 ([1]; Homo sapiens, ME-180, 48 hours) [µM]	IC50 ([2]; Homo sapiens) [µM]	Compound	% Inhibition (1 μM), relative percentage of inhibition [3] [%]	% Inhibition (10 μM), relative percentage of inhibition [3] [%]	IC50 ([4]; Cricetulus griseus) [µM]	IC50 [4] [µM]
11.2	865			1,5-Dichloro-9-(p-toluoxy)-anthracene [Compound 3o]	2.9	25.6		
		226	813	O=C(Oc1c2cccc(Cl)c2cc2cccc(Cl)c12)c1ccccc1 [Compound 3L, 1,5-Dichloro-9-benzoyloxy-anthracene]	4.6	14.0	1440	
		48.1	473	CC(=O)Oc1c2cccc(Cl)c2cc2cccc(Cl)c12 [Compound 3a, 1,5-Dichloro-9-acetyloxy-anthracene]	25.5	34.4	114	
106	528			O=C(CCl)Oc1c2cccc(Cl)c2cc2cccc(Cl)c12 [Compound 3c]	100	100		1.2
17.2	471			CCC(=O)Oc1c2cccc(Cl)c2cc2cccc(Cl)c12 [Compound 3d]	100	100		1160
126	374			CC(Cl)C(=O)Oc1c2cccc(Cl)c2cc2cccc(Cl)c12 (stereo not drawn) [Compound 3f]	9.8	60.6		955
1.4	528			O=C(Oc1c2cccc(Cl)c2cc2cccc(Cl)c12)C(Cl)Cl [Compound 3g]	61.7	100		1280
1.1	11			O=C(CCCCl)Oc1c2cccc(Cl)c2cc2cccc(Cl)c12 [Compound 3j]	10.0	29.0		1170
108	1140			Cc1ccccc1C(=O)Oc1c2cccc(Cl)c2cc2cccc(Cl)c12 [Compound 3m]	0	23.0		1510
398	111			Cc1cccc(C(=O)Oc2c3cccc(Cl)c3cc3cccc(Cl)c23)c1 [Compound 3n, 1,5-Dichloro-9-(m-toluyloxy)-anthracene]	10.9	22.4		1200
11.7	1050			O=C(Oc1c2cccc(Cl)c2cc2cccc(Cl)c12)c1cccc(Cl)c1 [Compound 3p]	8.6	30.6		
10.8	818			COc1cc(Cl)ccc1C(=O)Oc1c2cccc(Cl)c2cc2cccc(Cl)c12 [Compound 3t]	0	10.3		114
87.7	108			O=C(Oc1c2cccc(Cl)c2cc2cccc(Cl)c12)c1ccc(Cl)cc1Cl [Compound 3u]	1.7	16.0		1180
1730	936			O=C(CCc1ccccc1)Oc1c2cccc(Cl)c2cc2cccc(Cl)c12 [Compound 3w]	29.3	36.6		1160
